Assay results from ChEMBL document CHEMBL3286297, “Design, synthesis and antiproliferative activity of a novel class of indole-2-carboxylate derivatives” (Eur J Med Chem, 2014).
Calls of active or inactive are those of the source. The rule behind the calls is not given here.

Key:
Format in all cases: functional, cell-based
MCF7 = experiment: Antiproliferative against human MCF7 cells after 48 hrs by MTT assay; conditions: MCF7, 48 h
A549 [1] = experiment: Antiproliferative against human A549 cells after 48 hrs by MTT assay; conditions: A549, 48 h
HepG2 = experiment: Antiproliferative against human HepG2 cells after 48 hrs by MTT assay; conditions: HepG2, 48 h
A549 [2] = experiment: Induction of reactive oxygen species generation in human A549 cells after 48 hrs by […]
A549 [3] = experiment: Cell cycle arrest in human A549 cells assessed as accumulation at G1 phase after 48 hrs by flow cytometric analysis
A549 [4] = experiment: Induction of apoptosis in human A549 cells assessed as […] cleavage after 48 hrs by Western blot analysis
A549 [5] = experiment: Cell cycle arrest in human A549 cells assessed as accumulation at G2/M phase after 48 hrs by flow cytometric analysis
A549 [6] = experiment: Induction of reactive oxygen species generation in human A549 cells at 200 uM after 48 hrs by […]

Row | Structure (SMILES) | IC50 (MCF7) [µM] | IC50 (A549 [1]) [µM] | IC50 (HepG2) [µM] | Activity (A549 [2]) | Activity (A549 [3]) | Activity (A549 [4]) | Activity (A549 [5]) | Activity (A549 [6])
1 | COC(=O)c1cc2c(OC)cccc2[nH]1 | > 200 | > 200 | > 200 |  |  |  |  | 
2 | CCCCOc1cccc2[nH]c(C(=O)OC)cc12 | > 200 | 87.1 | > 200 |  |  |  |  | 
3 | CCCCOc1c(OCC)ccc2[nH]c(C(=O)OC)cc12 | > 200 | 102 | 168 |  |  |  |  | 
4 | COC(=O)c1cc2c(OCc3ccc(F)cc3)cc(N)cc2[nH]1 | > 200 | > 200 | > 200 |  |  |  |  | 
5 | COC(=O)c1cc2c(OCC3CCCCC3)cccc2[nH]1 | 89.8 | 31.1 | > 200 |  |  |  |  | 
6 | COC(=O)c1cc2c(OCC(C)C)cc(NC(C)=O)cc2[nH]1 | > 200 | > 200 | > 200 |  |  |  |  | 
7 | COC(=O)c1cc2c(O)cc(N)cc2[nH]1 | > 200 | > 200 | > 200 |  |  |  |  | 
8 | CCOc1ccc2[nH]c(C(=O)OC)cc2c1OCC1CCCCC1 | > 200 | 65.2 | > 200 |  |  |  |  | 
9 | COC(=O)c1cc2ccc(N(C)C)cc2[nH]1 | > 200 | > 200 | > 200 |  |  |  |  | 
10 | COC(=O)c1cc2c(OCC(C)C)cccc2[nH]1 | > 200 | 51.4 | > 200 |  |  |  |  | 
11 | CCCOc1cccc2[nH]c(C(=O)OC)cc12 | > 200 | > 200 | > 200 |  |  |  |  | 
12 | COC(=O)c1cc2c(OCC3CCCCC3)cc(NC(C)=O)cc2[nH]1 | > 200 | > 200 | > 200 |  |  |  |  | 
13 | CCCOc1c(OCC)ccc2[nH]c(C(=O)OC)cc12 | > 200 | > 200 | 63.5 |  |  |  |  | 
14 | COC(=O)c1cc2ccc(N)cc2[nH]1 | > 200 | > 200 | > 200 |  |  |  |  | 
15 | COC(=O)c1cc2c(OCC(C)C)cc(N)cc2[nH]1 | 97.4 | 11.4 | 68.9 |  |  |  |  | 
16 | C=CCOc1cc(N)cc2[nH]c(C(=O)OC)cc12 | > 200 | > 200 | > 200 |  |  |  |  | 
17 | COC(=O)c1cc2c(OCc3ccccc3)cc(N)cc2[nH]1 | > 200 | > 200 | > 200 |  |  |  |  | 
18 | COC(=O)c1cc2c(OC(C)C)cccc2[nH]1 | > 200 | > 200 | > 200 |  |  |  |  | 

Now those with a lower IC50 (MCF7), led by results:

Row | IC50 (MCF7) [µM] | IC50 (A549 [1]) [µM] | IC50 (HepG2) [µM] | Structure (SMILES) | Activity (A549 [2]) | Activity (A549 [3]) | Activity (A549 [4]) | Activity (A549 [5]) | Activity (A549 [6])
19 | 0.0258 | 1.53 | 0.0673 | CC(=O)O[C@H]1C(=O)[C@@]2(C)[C@H]([C@H](OC(=O)c3ccccc3)[C@]3(O)C[C@H](OC(=O)[C@H](O)[C@@H](NC(=O)c4ccccc4)c4ccccc4)C(C)=C1C3(C)C)[C@]1(OC(C)=O)CO[C@@H]1C[C@@H]2O [PACLITAXEL] |  |  |  |  | 
20 | 18.8 | 25.4 | > 200 | CCCOc1cc(OC)cc2[nH]c(C(=O)OC)cc12 |  |  |  |  | 
21 | 3.78 | 3.98 | 14.5 | COC(=O)c1cc2c(OCC3CCCCC3)cc(N)cc2[nH]1 | Dose-dependent effect | Dose-dependent effect | Dose-dependent effect | Dose-dependent effect | 
22 | 81.1 | 242 | 13.7 | COc1cc([C@@H]2c3cc4c(cc3[C@@H](O[C@@H]3O[C@@H]5CO[C@@H](C)O[C@H]5[C@H](O)[C@H]3O)[C@H]3COC(=O)[C@H]23)OCO4)cc(OC)c1O [ETOPOSIDE] |  |  |  |  | 
23 | 41.8 | 40.4 | > 200 | CCCCOc1cc(OC)cc2[nH]c(C(=O)OC)cc12 |  |  |  |  | 
24 | 81.1 | 107 | > 200 | COC(=O)c1cc2c(OCC3CCCCC3)cc(OC)cc2[nH]1 |  |  |  |  | 
25 | 25.5 | 750 | 45.7 | O=C(O)c1cc(C(=O)O)c2c(n1)C(=O)C(=O)c1cc(C(=O)O)[nH]c1-2 [PYRROLOQUINOLINE QUINONE] |  |  |  |  | Active
26 | 6.38 | 24.1 | 3.8 | COC(=O)c1cc2c(OC(C)C)cc(OC)cc2[nH]1 | Dose-dependent effect | Dose-dependent effect | Dose-dependent effect | Dose-dependent effect | 
